Test results: patent US12279611B2, “Method for controlling insects where an alkoxylated glycerol is applied to soil” (priority 2016, dated 2025)
Values joined by “and” are separate entries in the source; they are usually repeats but may differ in a detail not shown here. Equal entries are not always repeated.

Experiments:
[1] = Wetting front test (soil migration by capillary action in soil-filled tubes, wetting front measured by caliper); type: physicochemical; details: for Migration: single replicates
Method: • Polymer A: Polymer formed from glycerol and ethylene oxide and propylene oxide units; molecular weight about 3000 g/mol, hydroxyl number about 56 mg KOH/g, clear liquid, dynamic viscosity at 25° C. about 582 cP, density at 25° C. about 1.02 g/cm^3. • Polymer B: Liquid composition, 70 wt % Polymer A, 10 wt % nonionic surfactant (ethoxylated alcohol, HLB about 13, hydroxyl number about 125), 10 wt % anionic surfactant (dodecylbenzene calcium sulfonate), and 10 wt % 1,2-propylene glycol. • Surfactant A: liquid, nonionic ethoxylated tristyrylphenol, HLB 10-11. • Surfactant B: nonionic EO-PO-EO Triblockcopolymer, average molecular weight about 2500 Da, pour point −4° C., HLB 1-7, solubility in water at least 10 wt % at 25° C. • Surfactant C: Alkyl polyethylene glycol ether based on C10-Guerbet alcohol, HLB about 13, solubility in water at least 10 wt % at 23° C. • Surfactant D: Calcium dodecylbenzene sulfonate. • Silica Thickener: White powder, hydrophilic fumed silica, specific surface area (BET) about 200 m^2/g; average primary particle diameter 12 nm, tapped density about […]. Wetting Front Test Procedure
A fine nylon netting was adhered (Polyseamseal® Caulk, Henkel Corp) to one end each of 15 cm×1.5 cm plastic tubes. Tubes were filled with Greenville silt loam (sand:silt:clay, 22:58:20). As soil was added, tubes were tapped on the lab bench to loosely pack the soil (approximately 50 g soil per tube). Aqueous solutions of subject treatments were prepared. Solutions (4 ml) were added to glass beakers (50 ml capacity), and the soil-filled tubes were placed in the beakers. Each treatment was replicated 4 times. […] Means were separated at the […] via ANOVA followed by Tukey's HSD.

[2] = Wetting front test with segment analysis (soil segments extracted with acetonitrile, broflanilide quantified by HPLC-UV); type: physicochemical; details: Example 3; for Concentration of broflanilide in segment 0-2 cm (average of four replicates): soil segment 0-2 cm; for Concentration of broflanilide in segment 2-4 cm (average of four replicates): soil segment 2-4 cm; for Concentration of broflanilide in segment 4-6 cm (average of four replicates): soil segment 4-6 cm; for Concentration of broflanilide in segment 6-8 cm (average of four replicates): soil segment 6-8 cm; for Concentration of broflanilide in segment 8-10 cm (average of four replicates): soil segment 8-10 cm
Method: A fine nylon netting was adhered (Polyseamseal® Caulk, Henkel Corp) to one end each of 15 cm×1.5 cm plastic tubes. Tubes were filled with Greenville silt loam (sand:silt:clay, 22:58:20). As soil was added, tubes were tapped on the lab bench to loosely pack the soil (approximately 50 g soil per tube). Aqueous solutions of subject treatments were prepared. Solutions (4 ml) were added to glass beakers (50 ml capacity), and the soil-filled tubes were placed in the beakers. Each treatment was replicated 4 times. The solutions migrated upward into the soil via capillary action, and after 20 hours, the wetting front was measured in three locations using a digital caliper. Means were separated at the […] via ANOVA followed by Tukey's HSD. An aqueous solution comprising 600 ppm broflanilide was made from an aqueous suspension concentrate comprising 100 g/l broflanilide. Optionally 3000 ppm of Polymer B was added. The wetting front test was made as described above with another analytical method: The soil filled tubes (four replicates for both the sample with and without polymer) were separated in seven segments with each 2 cm long. The segment “0-2 cm” was the segment on the bottom which had direct contact to the aqueous solution of broflanilide. The segments (about 4.0 g each) were extracted twice with acetonitrile. The amount of broflanilide was quantified via HPLC with UV detection.

[3] = Example 2, 600 ppm broflanilide + 1500 ppm Polymer A, Greenville silt loam, 20 hours
[4] = Example 2, 600 ppm broflanilide + 3000 ppm Polymer A, Greenville silt loam, 20 hours
[5] = Example 2, 600 ppm broflanilide + 4200 ppm Polymer A, Greenville silt loam, 20 hours
[6] = Example 4, 600 ppm broflanilide + 300 ppm Polymer A, Greenville silt loam, 20 hours
[7] = Example 4, 600 ppm broflanilide + 600 ppm Polymer A, Greenville silt loam, 20 hours
[8] = Example 4, 600 ppm broflanilide + 1500 ppm Polymer A, Greenville silt loam, 20 hours
[9] = Example 4, 600 ppm broflanilide, no polymer, Greenville silt loam, 20 hours
[10] = 600 ppm broflanilide + 3000 ppm Polymer B
[11] = 600 ppm broflanilide, no polymer
[12] = Example 1, 600 ppm chlorfenapyr + 1200 ppm Polymer B, Greenville silt loam, 20 hours
[13] = Example 1, 600 ppm chlorfenapyr + 3000 ppm Polymer B, Greenville silt loam, 20 hours
[14] = Example 5, 600 ppm fipronil + 1200 ppm Polymer B, after 2 h
[15] = Example 5, 600 ppm fipronil + 1200 ppm Polymer B, after 20 h
[16] = Example 5, 600 ppm fipronil + 3000 ppm Polymer B, after 2 h
[17] = Example 5, 600 ppm fipronil + 3000 ppm Polymer B, after 20 h
[18] = Example 5, 600 ppm fipronil, no polymer, after 20 h

## CN(C(=O)c1ccccc1)c1cccc(C(=O)Nc2c(Br)cc(C(F)(C(F)(F)F)C(F)(F)F)cc2C(F)(F)F)c1F [Broflanilide, broflanilide]
[1]; [3]
  Average Migration: 9.29 cm
  Migration: 8.89 cm and 9.34 cm (2×) and 9.6 cm
[1]; [4]
  Average Migration: 8.74 cm
  Migration: 8.53 cm and 8.62 cm and 8.60 cm and 9.19 cm
[1]; [5]
  Average Migration: 8.79 cm
  Migration: 8.37 cm and 9.22 cm and 8.74 cm and 8.82 cm
[1]; [6]
  Average Migration: 7.78 cm
  Migration: 7.90 cm and 7.72 cm and 7.71 cm and 7.80 cm
[1]; [7]
  Average Migration: 7.98 cm
  Migration: 7.98 cm and 7.77 cm and 8.04 cm and 8.02 cm
[1]; [8]
  Average Migration: 7.72 cm
  Migration: 7.73 cm and 7.69 cm and 7.82 cm and 7.64 cm
[1]; [9]
  Average Migration: 6.89 cm
  Migration: 7.32 cm and 6.75 cm and 6.61 cm and 6.88 cm
[2]; [10]
  Concentration of broflanilide in segment 0-2 cm (average of four replicates): 170 ppm
  Concentration of broflanilide in segment 2-4 cm (average of four replicates): 36 ppm
  Concentration of broflanilide in segment 4-6 cm (average of four replicates): 16 ppm
  Concentration of broflanilide in segment 6-8 cm (average of four replicates): 4 ppm
  Concentration of broflanilide in segment 8-10 cm (average of four replicates): 0 ppm
[2]; [11]
  Concentration of broflanilide in segment 0-2 cm (average of four replicates): 127 ppm
  Concentration of broflanilide in segment 2-4 cm (average of four replicates): 51 ppm
  Concentration of broflanilide in segment 4-6 cm (average of four replicates): 3 ppm
  Concentration of broflanilide in segment 6-8 cm (average of four replicates): 0 ppm
  Concentration of broflanilide in segment 8-10 cm (average of four replicates): 0 ppm

## CCOCn1c(-c2ccc(Cl)cc2)c(C#N)c(Br)c1C(F)(F)F [Chlorfenapyr, chlorfenapyr]
[1]; Example 1, 600 ppm chlorfenapyr (Phantom SC), no polymer, Greenville silt loam, 20 hours
  Migration: 7.7780 cm and 7.5100 cm and 7.6600 cm and 7.7640 cm
[1]; [12]
  Average Migration: 8.39 cm
  Migration: 8.3770 cm and 8.3350 cm and 8.4290 cm and 8.4350 cm
[1]; [13]
  Average Migration: 8.81 cm
  Migration: 8.7420 cm and 8.7610 cm and 8.8760 cm and 8.8460 cm
[1]; Example 1, 600 ppm chlorfenapyr, no polymer, Greenville silt loam, 20 hours
  Average Migration: 7.68 cm

## N#Cc1nn(-c2c(Cl)cc(C(F)(F)F)cc2Cl)c(N)c1[S+]([O-])C(F)(F)F (stereo not drawn) [Fipronil, fipronil]
[1]; Example 5, 600 ppm fipronil (Termidor SC), no polymer, after 2 h
  Migration: 6.0 cm and 6.1 cm and 6.5 cm and 6.4 cm
[1]; [14]
  Average Migration: 6.70 cm
  Migration: 6.5 cm and 7.0 cm and 6.7 cm and 6.6 cm
[1]; [15]
  Average Migration: 7.93 cm
  Migration: 7.7 cm and 8.0 cm (3×)
[1]; [16]
  Average Migration: 6.98 cm
  Migration: 7.1 cm and 7.0 cm (2×) and 6.8 cm
[1]; [17]
  Average Migration: 8.40 cm
  Migration: 8.5 cm and 8.3 cm and 8.4 cm (2×)
[1]; Example 5, 600 ppm fipronil, no polymer, after 2 h
  Average Migration: 6.25 cm
[1]; [18]
  Average Migration: 7.38 cm
  Migration: 7.0 cm and 7.4 cm (2×) and 7.7 cm
